Measurements reported in patent US20070191317A1, “VITAMIN D ANALOG - RAK, METHODS AND USES THEREOF” (WISCONSIN ALUMNI RESEARCH FOUNDATION, priority 2006, published 2007).
Entries after “also recorded” stand apart in the source; their conditions may differ.

Experiments:
[1] = cited from earlier work; for calcemic activity: as compared to 1α,25-dihydroxyvitamin D3
vitamin D receptors = molecular target: T1, vitamin D receptors (Homo sapiens, UniProt P11473); details: cited from earlier work
T1 sequence (P11473 1-427): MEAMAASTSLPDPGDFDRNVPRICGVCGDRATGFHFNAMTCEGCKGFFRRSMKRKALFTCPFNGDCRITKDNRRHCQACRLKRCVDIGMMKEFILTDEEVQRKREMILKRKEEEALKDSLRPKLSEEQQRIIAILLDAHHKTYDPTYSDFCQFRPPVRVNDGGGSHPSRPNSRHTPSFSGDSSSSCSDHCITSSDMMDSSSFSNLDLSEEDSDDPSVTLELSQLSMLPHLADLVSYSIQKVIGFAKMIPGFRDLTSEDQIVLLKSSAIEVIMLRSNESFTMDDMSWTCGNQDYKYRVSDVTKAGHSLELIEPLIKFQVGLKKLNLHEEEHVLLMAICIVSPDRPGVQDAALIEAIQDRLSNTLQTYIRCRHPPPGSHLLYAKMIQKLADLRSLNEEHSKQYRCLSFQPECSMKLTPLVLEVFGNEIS

[2] = Bone calcium mobilization (serum calcium); assay type: in vivo, Sprague-Dawley rats; details: rats, ip, FIG. 2
Description: FIG. 2 is a bar graph comparing the bone calcium mobilization activity of RAK with that of 1,25(OH)2D3.
(§1) Male, weanling Sprague-Dawley rats were placed on Diet 11 (0.47% Ca) diet+AEK for one week followed by Diet 11 (0.02% Ca)+AEK for 3 weeks. The rats were then switched to a diet containing 0.47% Ca for one week followed by two weeks on a diet containing 0.02% Ca. Dose administration began during the last week on 0.02% calcium diet. Four consecutive ip doses were given approximately 24 hours apart. Twenty-four hours after the last dose, blood was collected from the severed neck and the concentration of serum calcium determined as a measure of bone calcium mobilization. The first 10 cm of the intestine was also collected for intestinal calcium transport analysis using the everted gut sac method.

[3] = tested on: 24-hdyroxylase (24Ohase) gene promoter; experiment: In vitro transcription assay (luciferase reporter) in ROS 17/2.8 (bone) cells; assay type: cell-based; details: Ros17/2.8 (bone) cells, relative to 1α,25-dihydroxyvitamin D3; FIG. 5
Description: FIG. 5 is a graph comparing the in vitro transcription activity of RAK with that of 1,25(OH)2D3.
Transcription activity was measured in ROS 17/2.8 (bone) cells that were stably transfected with a 24-hdyroxylase (24Ohase) gene promoter upstream of a luciferase reporter gene (Arbour et al., 1998). Cells were given a range of doses. Sixteen hours after dosing the cells were harvested and luciferase activities were measured using a luminometer. (RLU=relative luciferase units)

[4] = Intestinal calcium transport (everted gut sac method); assay type: in vivo, Sprague-Dawley rats; details: rats, ip; at equimolar quantities of the dose of 1α,25-dihydroxyvitamin D3; FIG. 3
Description: FIG. 3 is a bar graph comparing the intestinal calcium transport activity of RAK with that of 1,25(OH)2D3.
as §1

[5] = molecular target: T2, full-length recombinant rat vitamin D receptor (Rattus norvegicus, UniProt P13053); experiment: Vitamin D receptor competitive binding with [3H]-1,25-(OH)2-D3; details: relative to 1α,25-dihydroxyvitamin D3; FIG. 1
T2 construct: Full-length recombinant rat receptor was expressed in E. coli; histidine tag (C); made in house; host or cells: E. coli BL21(DE3) Codon Plus RIL
T2 sequence (P13053 1-423): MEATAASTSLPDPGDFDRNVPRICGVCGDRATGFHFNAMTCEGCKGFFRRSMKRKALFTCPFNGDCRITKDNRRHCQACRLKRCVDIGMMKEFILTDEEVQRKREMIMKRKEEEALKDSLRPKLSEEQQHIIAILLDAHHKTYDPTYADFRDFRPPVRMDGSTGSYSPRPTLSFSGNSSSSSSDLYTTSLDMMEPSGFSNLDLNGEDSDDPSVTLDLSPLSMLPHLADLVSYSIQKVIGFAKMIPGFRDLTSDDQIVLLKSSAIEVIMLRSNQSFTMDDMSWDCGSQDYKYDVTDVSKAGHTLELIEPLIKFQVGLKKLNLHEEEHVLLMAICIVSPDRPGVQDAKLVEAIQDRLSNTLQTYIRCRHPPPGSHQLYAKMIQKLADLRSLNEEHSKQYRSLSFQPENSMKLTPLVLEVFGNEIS
Description: The first system was a nickel affinity resin that utilizes the C-terminal histidine tag on this protein. The protein that was eluted from this resin was further purified using ion exchange chromatography (S-Sepharose Fast Flow). Aliquots of the purified protein were quick frozen in liquid nitrogen and stored at −80° C. until use. For use in binding assays, the protein was diluted in TEDK50 (50 mM Tris, 1.5 mM EDTA, pH7.4, 5 mM DTT, 150 mM KCl) with 0.1% Chaps detergent. The receptor protein and ligand concentration was optimized such that no more than 20% of the added radiolabeled ligand was bound to the receptor.
The following day, 100 mcl of hydroxylapatite slurry (50%) was added to each tube and mixed at 10-minute intervals for 30 minutes. The hydroxylapaptite was collected by centrifugation and then washed three times with Tris-EDTA buffer (50 mM Tris, 1.5 mM EDTA, pH 7.4) containing 0.5% Titron X-100. After the final wash, the pellets were transferred to scintillation vials containing 4 ml of Biosafe II scintillation cocktail, mixed and placed in a scintillation counter. Total binding was determined from the tubes containing only radiolabeled ligand.

HL-60 cells = experiment: HL-60 differentiation (nitro blue tetrazolium reduction); assay type: cell-based, human; details: relative to 1α,25-dihydroxyvitamin D3; FIG. 4
Description: FIG. 4 is a graph comparing the percent HL-60 cell differentiation as a function of the concentration of RAK with that of 1,25(OH)2D3.
The study drugs were dissolved in ethanol and the concentrations determined using UV spectrophotometry. Serial dilutions were prepared so that a range of drug concentrations could be tested without changing the final concentration of ethanol (<0.2%) present in the cell cultures.
Human promyelocytic leukemia (HL60) cells were grown in RPMI-1640 medium containing 10% fetal bovine serum. The cells were incubated at 37° C. in the presence of 5% CO2.
HL60 cells were plated at 1.2×10^5 cells/ml. Eighteen hours after plating, cells in duplicate were treated with drug. Four days later, the cells were harvested and a nitro blue tetrazolium reduction assay was performed (Collins et al., 1979; J. Exp. Med. 149:969-974). The percentage of differentiated cells was determined by counting a total of 200 cells and recording the number that contained intracellular black-blue formazan deposits. Verification of differentiation to monocytic cells was determined by measuring phagocytic activity (data not shown).

1α-hydroxy-2-methylene-19-nor-(20S)-homopregnacalciferol
calcemic activity [1]: little if any calcemic activity | binding activity to vitamin D receptors (vitamin D receptors): relatively high binding activity

1α-hydroxy-2-methylene-19-nor-bishomopregnacalciferol
calcemic activity [1]: little if any calcemic activity | binding activity to vitamin D receptors (vitamin D receptors): relatively high binding activity

C[C@H](CCCC(C)(C)O)[C@H]1CC[C@H]2/C(=C/C=C3C[C@@H](O)C[C@H](O)C3)CCC[C@]12C [1α,25-dihydroxy-19-nor-vitamin D3]
calcium mobilizing activity ([1]; in vivo): very low

C=C1[C@H](O)CC(=C/C=C2\CCC[C@]3(C)[C@@H](CC)CC[C@@H]23)C[C@H]1O [1α-hydroxy-2-methylene-19-nor-pregnacalciferol]
calcemic activity [1]: little if any calcemic activity | binding activity to vitamin D receptors (vitamin D receptors): relatively high binding activity

C=C1[C@H](O)CC(=C/C=C2\CCC[C@]3(C)[C@@H]([C@H](C)CCCC(C)O)CC[C@@H]23)C[C@H]1O (stereo partly drawn) [RAK, (20R,25R)-2-Methylene-19,26-dinor-1α,25-dihydroxyvitamin D3]
calcemic activity measured by bone calcium mobilization ([2]; at 27 time molar quantity of the dose of 1α,25-dihydroxyvitamin D3): limited calcemic activity | calcemic activity measured by bone calcium mobilization ([2]; at equimolar quantities of the dose of 1α,25-dihydroxyvitamin D3): limited calcemic activity; also recorded: very low ability to mobilize calcium from bone | stimulating transcription of a reporter gene [3]: equally active | calcemic activity measured by intestinal calcium transport [4]: limited calcemic activity; also recorded: very low intestinal calcium transport activity | binding to the recombinant vitamin D receptor [5]: comparable to 1α,25-dihydroxyvitamin D3; also recorded: relatively high binding | inducing differentiation of HL-60 cells (HL-60 cells): equally active as 1α,25-dihydroxyvitamin D3
